Data taken from ChEMBL document CHEMBL1201862, “PubChem BioAssay data set” (2004).
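Exposure lasted 48 hours, with cells grown in 96-well plates and compounds tested at five concentrations. Abbreviation: GI50, concentration required for 50% inhibition of growth.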 Activity calls are given as the source filed them. No stated cut-off is given here; in the data, active = GI50 up to about 1.1 µM and inactive = higher.

How the values were obtained:
Assay in all cases: NCI anticancer screen, dose series, 48 h
DU-145 = test system: DU-145
PC-3 = test system: PC-3
SK-OV-3 = test system: SK-OV-3
SK-MEL-5 = test system: SK-MEL-5
NCI/ADR-RES = test system: NCI/ADR-RES
KM12 = test system: KM12
NCI-H460 = test system: NCI-H460
M14 = test system: M14
786-0 = test system: 786-0
COLO 205 = test system: COLO 205
NCI-H226 = test system: NCI-H226
SF-295 = test system: SF-295
SK-MEL-2 = test system: SK-MEL-2
OVCAR-8 = test system: OVCAR-8
BT-549 = test system: BT-549
TK-10 = test system: TK-10
SNB-19 = test system: SNB-19
SR = test system: SR
Hs-578T = test system: Hs-578T
HCT-15 = test system: HCT-15

| SMILES | GI50 (DU-145) | GI50 (PC-3) | GI50 (SK-OV-3) | GI50 (SK-MEL-5) | GI50 (NCI/ADR-RES) | GI50 (KM12) | GI50 (NCI-H460) | GI50 (M14) | GI50 (786-0) | GI50 (COLO 205) | GI50 (NCI-H226) | GI50 (SF-295) | GI50 (SK-MEL-2) | GI50 (OVCAR-8) | GI50 (BT-549) | GI50 (TK-10) | GI50 (SNB-19) | GI50 (SR) | GI50 (Hs-578T) | GI50 (HCT-15) |
| --- | --- | --- | --- | --- | --- | --- | --- | --- | --- | --- | --- | --- | --- | --- | --- | --- | --- | --- | --- | --- |
| CC[C@H]1C=CCC[C@@]2(C[C@@H]3CC[C@@H]4[C@H](C(=O)OCCCCCCCCCCCCCCCC(=O)N(CCCNC(C)=O)C[C@H](CCNC(C)=O)OC(C)=O)[C@]5(CCC[C@@H](C)O5)NC(=[N+]34)N2)O1 | 0.0918 µM (active) | 0.0349 µM (active) | 1.43 µM (inactive) | 0.124 µM (active) | 2.74 µM (inactive) | 0.0847 µM (active) | 0.131 µM (active) | 0.129 µM (active) | 0.109 µM (active) | 0.0395 µM (active) | 0.229 µM (active) | 0.391 µM (active) | 0.0404 µM (active) | 0.614 µM (active) | 0.453 µM (active) | 0.759 µM (active) | 0.533 µM (active) | 0.0394 µM (active) | 0.391 µM (active) | 0.904 µM |
| S=C(Nc1cc(Cl)c(Cl)cc1Cl)SCc1ccccc1 | 39.4 µM (inactive) | 32 µM (inactive) | 56 µM (inactive) | 20.7 µM (inactive) | 24.9 µM (inactive) | 19.8 µM (inactive) | 45.8 µM (inactive) | 34.9 µM (inactive) | 38.2 µM (inactive) | 34.9 µM (inactive) | 18.5 µM (inactive) | 19.4 µM (inactive) | > 100 µM (inactive) | 20.1 µM (inactive) | 26.2 µM (inactive) | 24.7 µM (inactive) | 28.6 µM (inactive) | 0.0129 µM (active) | 34.3 µM (inactive) | 18.1 µM |
| CCN(CC)c1nc(=O)c(C(=O)C(C)(C)C)c(C(C)(C)C)o1 | > 100 µM (inactive) | > 100 µM (inactive) | > 100 µM (inactive) | > 100 µM (inactive) | > 100 µM (inactive) | > 100 µM (inactive) | > 100 µM (inactive) | > 100 µM (inactive) | > 100 µM (inactive) | > 100 µM (inactive) | > 100 µM (inactive) | > 100 µM (inactive) | > 100 µM (inactive) | > 100 µM (inactive) | > 100 µM (inactive) | > 100 µM (inactive) | 98.4 µM (inactive) | > 100 µM (inactive) | > 100 µM (inactive) | > 100 µM |
| COc1ccc(-c2cc(-c3cc(F)c(Cl)cc3Cl)on2)cc1OC | 37.1 µM (inactive) | 18.7 µM (inactive) | 44.6 µM (inactive) | 9.51 µM (inactive) | 11.4 µM (inactive) | 14.3 µM (inactive) | 26.2 µM (inactive) | 24.9 µM (inactive) | 63.8 µM (inactive) | 17.4 µM (inactive) | 13.3 µM (inactive) | 13.2 µM (inactive) | 17.1 µM (inactive) | 72.3 µM (inactive) | 33 µM (inactive) | 49.5 µM (inactive) | > 100 µM (inactive) | 1.16 µM (inactive) | 67.1 µM (inactive) | 5.42 µM |
| CC[C@@H](/C=C\CCC1(C[C@H](O)CCC=C(C)C)OCCO1)O[Si](C(C)C)(C(C)C)C(C)C | 30 µM (inactive) | 29.8 µM (inactive) | 21.8 µM (inactive) | 17.8 µM (inactive) | 22.4 µM (inactive) | 37.1 µM (inactive) | 21.9 µM (inactive) | 26.5 µM (inactive) | 17.5 µM (inactive) | 19.8 µM (inactive) | 19.6 µM (inactive) | 20.2 µM (inactive) | 16.3 µM (inactive) | 19.9 µM (inactive) | 30.5 µM (inactive) | 20.6 µM (inactive) | 18.9 µM (inactive) | 21.2 µM (inactive) | 37.3 µM (inactive) | 20.1 µM |
| COc1ccc(S(=O)(=O)N/N=C/C(=O)O)cc1 | 327 µM (inactive) | 389 µM (inactive) | 971 µM (inactive) | 400 µM (inactive) | 490 µM (inactive) | 557 µM (inactive) | 359 µM (inactive) | 684 µM (inactive) | 397 µM (inactive) | 1010 µM (inactive) | 624 µM (inactive) | 465 µM (inactive) | 428 µM (inactive) | 499 µM (inactive) | 284 µM (inactive) | 832 µM (inactive) | 706 µM (inactive) | 202 µM (inactive) | 404 µM (inactive) | 542 µM |
| C(=C/c1ccc2nc(-c3ccc(/C=C/C=N/NC4=NCCCN4)cc3)cn2c1)/C=N/NC1=NCCCN1 | 17.5 µM (inactive) | 20.3 µM (inactive) | > 100 µM (inactive) | > 100 µM (inactive) | 22.1 µM (inactive) | 6.31 µM (inactive) | 13.3 µM (inactive) | 66.4 µM (inactive) | 42.9 µM (inactive) | > 100 µM (inactive) | 14.8 µM (inactive) | > 100 µM (inactive) | > 100 µM (inactive) | 17.6 µM (inactive) | > 100 µM (inactive) | 19.5 µM (inactive) | 89.7 µM (inactive) | 31.2 µM (inactive) | 15.8 µM (inactive) | > 100 µM |
